Results as given in US12162867B2, “Inhibitors of RNA helicase DHX9 and uses thereof” (ACCENT THERAPEUTICS, INC., priority 2022, dated 2024).
Like-named read-outs stand apart in the source and are kept apart here.

Assays:
Type in all cases: cell-based
LS411N cells = experiment: DHX9 cellular proliferation assay (CellTiter-Glo), LS411N (CRC-MSI); conditions: Homo sapiens, LS-411N, read-out: LS411N (CRC-MSI-H) Antiproliferative IC50
NCI-H747 cells = experiment: DHX9 cellular proliferation assay (CellTiter-Glo), NCI-H747 (CRC-MSS); conditions: Homo sapiens
[1] = tested on: circBRIP1 in HCT116 cells; experiment: DHX9 circBRIP1 cellular target engagement TaqMan Multiplex assay (qPCR); conditions: Homo sapiens
[2] = LS411N, CRC-MSI-H, performed at Pharmaron
[3] = NCI-H747, NCI-H747, CRC-MSS, performed at Pharmaron, read-out: H747 (CRC-MSS) Antiproliferative IC50
[4] = HCT-116, 72 h, circBRIP1, HCT116 cells, 72 hours, Taqman assay (marked *), read-out: DHX9 Cellular Target Engagement EC50
[5] = NCI-H747, NCI-H747, performed at Pharmaron, read-out: H747 (CRC-MSS) Antiproliferative IC50
[6] = HCT-116, circBRIP1, HCT116 cells, * Taqman assay was used, read-out: DHX9 Cellular Target Engagement EC50

IC50 (NCI-H747 cells; [5])	EC50 [1, 6]	SMILES	IC50 (LS411N cells; LS411N, performed at Pharmaron)	other results
4630 nM	0.0477 µM	CC(C)(C)Oc1cnc(-c2cc(C(=O)Nc3cc(Cl)cc(NS(C)(=O)=O)c3)sc2CO)nc1 [Example 686]	132 nM	
7150 nM	0.0689 µM	Cc1cc(C(=O)Nc2cc(Cl)cc(NS(C)(=O)=O)c2)cn1-c1ncc(N2CC(F)(F)C2)cc1C#N [Example 415]	502 nM	
> 10000 nM	0.0453 µM	CN(C)CCOc1cnc(-c2cc(C(=O)Nc3cc(Cl)cc(NS(C)(=O)=O)c3)cn2C)c(F)c1 [Example 646]	32.5 nM	
2060 nM	0.0124 µM	Cc1sc(C(=O)Nc2cc(Cl)cc(NS(C)(=O)=O)c2)cc1-c1ccc(N2CCC(F)(F)C2)cn1 [Example 485]	58.3 nM	
4810 nM	0.0145 µM	Cc1sc(C(=O)Nc2cc(Cl)cc(NS(C)(=O)=O)c2)cc1-c1ccc(N2CC(F)(F)C2)cn1 [Example 533]	73.9 nM	
> 10000 nM	0.0876 µM	Cc1sc(C(=O)Nc2cc(Cl)cc(NS(C)(=O)=O)c2)cc1-c1ncc(N2CC(F)(F)C2)cc1OC(C)C [Example 534]	55.4 nM	
> 10000 nM	0.103 µM	CCS(=O)(=O)Nc1cc(Cl)cc(NC(=O)c2cc(-c3ccc(F)cn3)n(C)c2)c1 [Example 579]	329 nM	
> 10000 nM	0.0173 µM	CNc1cnc(-c2cc(C(=O)Nc3cc(Cl)cc(NS(C)(=O)=O)c3)sc2C)nc1 [Example 616, N-(3-chloro-5-methanesulfonamidophenyl)-5-methyl-4-[5-(methylamino)pyrimidin-2-yl]thiophene-2-carboxamide]	348 nM	
8830 nM	0.0205 µM	CN1CC(Oc2cnc(-c3cc(C(=O)Nc4cc(Cl)cc(NS(C)(=O)=O)c4)cn3C)c(F)c2)C1 [Example 611]	133 nM	
2170 nM	0.0421 µM	Cc1cc(C(=O)Nc2cc(Cl)cc(NS(C)(=O)=O)c2)cn1-c1ncc(N2CC3(C2)CC(F)(F)C3)cn1 [Example 413]	138 nM	
7560 nM	0.133 µM	Cn1cc(C(=O)Nc2cc(Cl)cc(NS(C)(=O)=O)c2)cc1-c1ncc(OC2CN(CC(F)(F)F)C2)cc1F [Example 615]	71.3 nM	
2300 nM	0.0926 µM	Cn1cc(C(=O)Nc2cc(Cl)cc(NS(C)(=O)=O)c2)cc1-c1ncc(OC(C)(C)C)cc1F [Example 557]	131 nM	
2020 nM	0.0233 µM	Cc1sc(C(=O)Nc2cc(Cl)cc(NS(C)(=O)=O)c2)cc1-c1ccc(N2CC(C(F)(F)F)C2)cn1 [Example 496]	48.2 nM	
> 10000 nM	0.0257 µM	COc1cc(N2CC(F)(F)C2)cnc1-c1cc(C(=O)Nc2cc(Cl)cc(NS(C)(=O)=O)c2)cn1C [Example 462]	257 nM	
6720 nM	0.0176 µM	Cc1sc(C(=O)Nc2cc(Cl)cc(NS(C)(=O)=O)c2)cc1-c1ncc(N2CCC3(COC3)C2)cc1F [Example 512]	107 nM	

Further lines, the compound ahead of its results:

SMILES	IC50 (NCI-H747 cells; [5])	EC50 [1, 6]	IC50 (LS411N cells; LS411N, performed at Pharmaron)	other results
Cc1sc(C(=O)Nc2cc(Cl)cc(NS(C)(=O)=O)c2)cc1-c1ncc(OC(C)C)cn1 [Example 541, N-(3-chloro-5-(methylsulfonamido)phenyl)-4-(5-isopropoxypyrimidin-2-yl)-5-methylthiophene-2-carboxamide]				IC50 (LS411N cells): 49.8 nM; IC50 (NCI-H747 cells; NCI-H747, read-out: H747 (CRC-MSS) Antiproliferative IC50): 6000 nM; EC50 ([1]; HCT-116, read-out: DHX9 Cellular Target Engagement EC50 (μM)): 0.0377 µM
CCS(=O)(=O)Nc1cc(Cl)cc(NC(=O)c2cc(-c3ncc(OC)cc3F)c(C)s2)c1 [Example 360]				IC50 (LS411N cells; [2]): 235 nM; IC50 (NCI-H747 cells; [3]): 7070 nM; EC50 [1, 4]: 0.0521 µM
Cn1cc(C(=O)Nc2cc(Cl)cc(NS(C)(=O)=O)c2)cc1-c1ccc(N2CC(C)(F)C2)cn1 [Example 688]	6360 nM	0.0475 µM	122 nM	
COC(=O)N1CCN(c2ccc(-c3cc(C(=O)Nc4cc(Cl)cc(NS(C)(=O)=O)c4)cn3C)nc2)CC1 [Example 596]	9880 nM	0.038 µM	172 nM	
CC(C)Oc1ccc(-c2csc(C(=O)Nc3cc(Cl)cc(NS(C)(=O)=O)c3)c2)nc1 [Example 459]	2660 nM	0.0582 µM	93.7 nM	
Cc1sc(C(=O)Nc2cc(Cl)cc(NS(C)(=O)=O)c2)cc1-c1ncc(OC(C)(C)C)cn1 [Example 559]	3370 nM	0.0425 µM	74 nM	
Cc1ncc(OCc2cc(F)cc(F)c2)c(-c2cc(C(=O)Nc3cc(Cl)cc(NS(C)(=O)=O)c3)cn2C)n1 [Example 734]	6170 nM	0.003 µM	10.6 nM	
Cn1cc(C(=O)Nc2cc(Cl)cc(NS(C)(=O)=O)c2)cc1-c1ncc(F)cc1C#N [Example 546]	> 10000 nM	0.109 µM	1090 nM	
CCS(=O)(=O)Nc1cc(Cl)cc(NC(=O)c2cc(-c3ncc(F)cc3OCc3nccs3)c(C)s2)c1 [Example 622]	> 10000 nM	0.0559 µM	48.9 nM	
Cc1cc(C(=O)Nc2cc(Cl)cc(NS(C)(=O)=O)c2)cn1-c1ncc(OC(C)(C)C)cn1 [Example 664]	> 10000 nM	0.0719 µM	163 nM	
Cc1sc(C(=O)Nc2cc(Cl)cc(NS(C)(=O)=O)c2)cc1-c1ncc(OC(C)(C)C)cc1F [Example 381]				IC50 (LS411N cells; [2]): 347 nM; IC50 (NCI-H747 cells; [3]): 965 nM; EC50 [1, 4]: 0.183 µM
Cc1sc(C(=O)Nc2cc(Cl)cc(NS(C)(=O)=O)c2)cc1-c1ncc(OC2CN(C)C2)cc1F [Example 635]	> 10000 nM	0.0191 µM	79.2 nM	
Cc1sc(C(=O)Nc2cc(Cl)cc(NS(C)(=O)=O)c2)cc1-c1ncccc1OC(C)c1cc(F)cc(F)c1 (single isomer, unassigned) [Example 633]	6460 nM	0.046 µM	10.4 nM	
Cn1cc(C(=O)Nc2cc(Cl)cc(NS(C)(=O)=O)c2)cc1-c1ccc(OC(C)(C)C)cn1 [Example 555]	4470 nM	0.0466 µM	121 nM	
Cn1cc(C(=O)Nc2cc(Cl)cc(NS(C)(=O)=O)c2)cc1-c1ncc(N2CC(F)(F)C2)cn1 [Example 597]	> 10000 nM	0.0648 µM	164 nM	
CCS(=O)(=O)Nc1cc(Cl)cc(NC(=O)c2cc(-c3ncc(OC)cn3)c(C)s2)c1 [Example 353]				IC50 (LS411N cells; [2]): 111 nM; IC50 (NCI-H747 cells; [3]): 8490 nM; EC50 [1, 4]: 0.094 µM

SMILES	IC50 (NCI-H747 cells; [5])	EC50 [1, 6]	IC50 (LS411N cells; LS411N, performed at Pharmaron)	other results
COc1cc(N2CC(F)(F)C2)cnc1-n1cc(C(=O)Nc2cc(Cl)cc(NS(C)(=O)=O)c2)cc1C [Example 421]	> 10000 nM	0.0194 µM	114 nM	
Cc1cc(C#N)cnc1-c1cc(C(=O)Nc2cc(Cl)cc(NS(C)(=O)=O)c2)sc1C [Example 376]				IC50 (LS411N cells; [2]): 303 nM; IC50 (NCI-H747 cells; [3]): > 10000 nM; EC50 [1, 4]: 0.0699 µM
Cn1cc(C(=O)Nc2cc(Cl)cc(NS(C)(=O)=O)c2)cc1-c1ncc(N2CC(F)C2)cn1 [Example 598]	> 10000 nM	0.0506 µM	174 nM	
CC(=O)N1CCC(c2cnc(-c3cc(C(=O)Nc4cc(Cl)cc(NS(C)(=O)=O)c4)sc3C)nc2)CC1 [Example 699]	> 10000 nM	0.0219 µM	517 nM	
Cc1sc(C(=O)Nc2cc(Cl)cc(NS(C)(=O)=O)c2)cc1-c1ncc(N2CC3(C2)CC(F)(F)C3)cc1F [Example 511]	7410 nM	0.0372 µM	149 nM	
COC1CN(c2ccc(-c3cc(C(=O)Nc4cc(Cl)cc(NS(C)(=O)=O)c4)cn3C)nc2)C1 [Example 465]	> 10000 nM	0.0352 µM	115 nM	
CCS(=O)(=O)Nc1cc(Cl)cc(NC(=O)c2cc(-c3ncc(OC(C)C)cn3)c(C)s2)c1 [Example 565]	3010 nM	0.0565 µM	58.2 nM	
Cn1cc(C(=O)Nc2cc(Cl)cc(NS(C)(=O)=O)c2)cc1-c1ccc(N2CC(C(F)(F)F)C2)cn1 [Example 497]	2490 nM	0.0437 µM	169 nM	
CCOc1cnc(-c2cc(C(=O)Nc3cc(Cl)cc(NS(C)(=O)=O)c3)sc2C)c(F)c1 [Example 456]	1940 nM	0.0328 µM	209 nM	
Cc1sc(C(=O)Nc2cc(Cl)cc(NS(C)(=O)=O)c2)cc1-c1ncc(C#N)cn1 [Example 585]	> 10000 nM	0.0651 µM	208 nM	
Cn1cc(C(=O)Nc2cc(Cl)cc(NS(C)(=O)=O)c2)cc1-c1ncc(N2CCC(F)(F)C2)cc1F [Example 525]	1350 nM	0.043 µM	144 nM	
COc1cnc(-c2cc(C(=O)Nc3cc(Cl)cc(NS(C)(=O)=O)c3)cn2C)nc1 [Example 549]	> 10000 nM	0.0483 µM	369 nM	
CC(C)Oc1cnc(-c2csc(C(=O)Nc3cc(Cl)cc(NS(C)(=O)=O)c3)c2)nc1 [Example 457]	4800 nM	0.0853 µM	76.1 nM	
Cn1cc(C(=O)Nc2cc(Cl)cc(NS(C)(=O)=O)c2)cc1-c1ncc(OC2CN(CC(F)F)C2)cc1F [Example 614]	3190 nM	0.0269 µM	53.1 nM	
CCS(=O)(=O)Nc1cc(Cl)cc(NC(=O)c2cc(-c3ccc(F)cn3)c(C)s2)c1 [Example 346]				IC50 (LS411N cells; [2]): 71.6 nM; IC50 (NCI-H747 cells; [3]): 7340 nM; EC50 [1, 4]: 0.0438 µM
Cc1sc(C(=O)Nc2cc(Cl)cc(NS(C)(=O)=O)c2)cc1-c1ncc(N2CCC3(CC2)CC3(F)F)cc1F [Example 478]	4840 nM	0.102 µM	259 nM	
